What was measured:
Rhopr-CRZR-β = assay: bioluminescence (calcium mobilizing) functional receptor assay, Rhopr-CRZR-β in CHOK1-aeq cells; type: cell-based, Rhodnius prolixus; conditions: for bioluminescence response (receptor activation): every 5 s over 15 s
Method: (§1) The ORF of the two Rhopr-CRZR variants were amplified and a Kozak translation initiation sequence was introduced at the 5′ end using primers listed in Supplementary Table 2. The resulting product was cloned into pGEM-T Easy vector and subcloned into pIRES2-ZsGreen1 (Clontech, Mountain View, CA, USA).
(§2) Chinese hamster ovary (CHO) cells stably expressing aequorin (CHOK1-aeq) (Paluzzi et al., [2010]) were cultured in complete media (94% Dulbecco's Modified Eagle Medium Nutrient Mixture F12-Ham (DMEM/F12) (Life Technologies Corporation, Carlsbad, CA, USA), 5% heat-inactivated fetal bovine serum (FBS), and 1% penicillin/streptomycin) containing 200 μg/mL Geneticin. The cells were incubated at 37°C in 5% CO2, and then transiently transfected with the expression vector for the receptor transcript variants using X-tremeGENE 9 DNA transfection reagent (Roche Applied Science, Indianapolis, IN, USA) at a ratio of 2:1 (transfection reagent to expression vector) using the manufacturer recommended protocol. Cells were also transiently transfected with an empty expression vector as a negative control.
(§3) The bioluminescence assay was performed 72 h post-transfection. The cells were first harvested with PBS/EDTA solution and suspended in bovine serum albumin BSA media (DMEM/F12 containing 1% BSA and 1% penicillin/streptomycin). The cells were incubated in the dark for 4–5 h at room temperature with 5 μM (final concentration) coelenterazine h (Promega, Madison, WI, USA) and then diluted 10-fold using BSA media. Various peptide concentrations were prepared with BSA media and loaded in triplicates on an opaque 96-well microplate. Cells were loaded into each well using an automated injector unit and luminescence was recorded over 15 s using a Wallac Victor2 plate reader (Perkin Elmer, San Diego, CA, USA). The peptides used were Rhopr-CRZ (pQTFQYSRGWTNamide), Rhopr-AKH (pQLTFSTDWamide), and Rhopr-ACP (pQVTFSRDWNAamide). Wells containing only the BSA media served as a blank control while wells containing 25, 50, and 100 μM ATP served as positive controls. Dose-response curves were obtained by averaging three replica plates and the EC50 values were determined using Prism5 software.

Rhopr-CRZR-α = assay: bioluminescence (calcium mobilizing) functional receptor assay, Rhopr-CRZR-α in CHOK1-aeq cells; type: cell-based, Rhodnius prolixus; conditions: for bioluminescence response (receptor activation): every 5 s over 15 s
Method: as §1, §2, §3

Periplaneta americana = tested on: Periplaneta americana; design: method as in Veenstra, [1989]; conditions: cockroach Periplaneta americana; ref Veenstra, [1989]; cited from earlier work
Gryllus bimaculatus = tested on: Gryllus bimaculatus; design: method as in Hua et al., [2000]; Hansen et al., [2010]; conditions: ref Hua et al., [2000], Hansen et al., [2010]; cited from earlier work
Bombyx. mori = tested on: Bombyx. mori; design: method as in Hua et al., [2000]; Hansen et al., [2010]; conditions: ref Hua et al., [2000], Hansen et al., [2010]; cited from earlier work
[1] = tested on: dorsal vessel of adult R. prolixus; assay: heartbeat assay in vitro; design: species or system Rhodnius prolixus; conditions: 10^−8 M Rhopr-CRZ; for increase in heartbeat frequency in vitro: compared to saline, n = 5
Method: Adult R. prolixus were anesthetized briefly with CO2 and injected with 2 μL of 2 μg/μL of dsCRZR or dsARG into the thorax using a 5 μL Hamilton syringe. Insects were left for 30 min at room temperature to recover and then kept in an incubator at 28°C on a 16 h: 8 h light/dark cycle. To determine knockdown efficiency, qPCR was performed 3 days post-injection.
Adult R. prolixus injected 3 days earlier with either dsCRZR or dsARG were dissected from the ventral surface under physiological saline (150 mM NaCl, 8.6 mM KCl, 2 mM CaCl2, 4 mM NaHCO3, and 8.5 mM MgCl2, 5 mM HEPES, pH 7.0). The digestive and reproductive systems were removed to expose the dorsal vessel. Electrodes attached to an impedance converter (UFI model 2991, Morro Bay, CA, USA) were positioned on either side of the dorsal vessel between the sixth and fifth abdominal segments. The heartbeat frequency was left to stabilize in 50 μL saline and the frequency of heartbeat measured from the traces recorded on a linear Flat-bed single channel chart recorder. The saline was then exchanged for 50 μL of 10^−8 M CRZ and the heartbeat frequency was again measured. The response to 10^−8 M CRZ was quantified by measuring the increase in heartbeat frequency compared to saline control.

5th instar R. prolixus = conditions: in vitro in 5th instar R. prolixus; ref Patel et al., [2014]; cited from earlier work
Text: The percent knockdown of Rhopr-CRZR transcript after injection of dsCRZR into adult R. prolixus was quantified by qPCR in the dorsal vessel. […] The physiological effects of this decrease in Rhopr-CRZR on heartbeat frequency was studied in vivo and in vitro in adult R. prolixus.

Galleria mellonella = tested on: Galleria mellonella; design: method as in Hua et al., [2000]; Hansen et al., [2010]; conditions: ref Hua et al., [2000], Hansen et al., [2010]; cited from earlier work
Manduca sexta = tested on: Manduca sexta; design: method as in Kim et al., [2004]; conditions: ref Kim et al., [2004]; cited from earlier work

Substance	bioluminescence response (receptor activation) (Rhopr-CRZR-β; Rhopr-CRZR-β, 10^−6 M, n = 3)	bioluminescence response (receptor activation) (Rhopr-CRZR-α; Rhopr-CRZR-α, 10^−6 M, n = 3)	heartbeat rate (Periplaneta americana)	dark body coloration (Gryllus bimaculatus)	dark body coloration (Bombyx. mori)	increase in heartbeat frequency in vitro ([1]; dsARG injected adults, vs dsCRZR unpaired t-test p = 0.0096) [beats/min]	heartbeat rate in vitro (in words) ([1]; dsARG injected insects, unpaired t-test p = 0.0096)	increase in heartbeat frequency in vitro ([1]; dsCRZR injected adults, vs dsARG unpaired t-test p = 0.0096) [beats/min]	EC50 (Rhopr-CRZR-β; Rhopr-CRZR-β transiently expressed in CHOK1-aeq cells, coelenterazine h luminescence over 15 s, 72 h post-transfection, triplicates, three replica plates averaged) [nM]	time of maximum luminescence (Rhopr-CRZR-β; Rhopr-CRZR-β, during the first 5 s following activation, 10^−6 M, n = 3) [s]	heartbeat frequency (5th instar R. prolixus)	EC50 (Rhopr-CRZR-α; Rhopr-CRZR-α transiently expressed in CHOK1-aeq cells, coelenterazine h luminescence over 15 s, 72 h post-transfection, triplicates, three replica plates averaged) [nM]	time of maximum luminescence (Rhopr-CRZR-α; Rhopr-CRZR-α, during the first 5 s following activation, 10^−6 M, n = 3) [s]	dark body coloration (Galleria mellonella)	ecdysis behavior (Manduca sexta)
pQLTFSTDWamide [Rhopr-AKH, R. prolixus adipokinetic hormone, pQLTFSTDWamide, reference compound]	without effect	without effect	–	–	–	–	–	–	–	–	–	–	–	–	–
pQTFQYSRGWTNamide [Rhopr-CRZ, Rhodnius prolixus corazonin neuropeptide, p…amide]	–	–	increases the heartbeat rate	did not have such an effect	did not have such an effect	7.33 ± 0.8	significantly increased the heartbeat rate	2 ± 0.9	1	≤ 5	increase heartbeat frequency in a dose-dependent manner	2.7	≤ 5	did not have such an effect	initiate ecdysis behavior
pQVTFSRDWNAamide [Rhopr-ACP, R. prolixus AKH/CRZ-related peptide, p[…]amide, reference compound]	without effect	without effect	–	–	–	–	–	–	–	–	–	–	–	–	–

Reference: paper PMC4971055, “Identification and Characterization of the Corazonin Receptor and Possible Physiological Roles of the Corazonin-Signaling Pathway in Rhodnius prolixus” (Frontiers in Neuroscience, 2016)
